{
  "source": "paper PMC9194863",
  "about": "“A novel small-molecule selective activator of homomeric GIRK4 channels” (The Journal of Biological Chemistry, 2022)",
  "assay_in_all_cases": "two-electrode voltage clamp, Xenopus oocytes",
  "type_in_all_cases": "cell-based",
  "key": {"[1]": {"target": "T1, GIRK4 homomeric channel (GIRK4, G4) (Homo sapiens, UniProt P48544, L90A)", "T1 construct": "gene KCNJ5; full-length GIRK4 in pGEMSH vector, homotetramer, expressed in Xenopus laevis oocytes", "T1 sequence (P48544 1-419 L90A)": "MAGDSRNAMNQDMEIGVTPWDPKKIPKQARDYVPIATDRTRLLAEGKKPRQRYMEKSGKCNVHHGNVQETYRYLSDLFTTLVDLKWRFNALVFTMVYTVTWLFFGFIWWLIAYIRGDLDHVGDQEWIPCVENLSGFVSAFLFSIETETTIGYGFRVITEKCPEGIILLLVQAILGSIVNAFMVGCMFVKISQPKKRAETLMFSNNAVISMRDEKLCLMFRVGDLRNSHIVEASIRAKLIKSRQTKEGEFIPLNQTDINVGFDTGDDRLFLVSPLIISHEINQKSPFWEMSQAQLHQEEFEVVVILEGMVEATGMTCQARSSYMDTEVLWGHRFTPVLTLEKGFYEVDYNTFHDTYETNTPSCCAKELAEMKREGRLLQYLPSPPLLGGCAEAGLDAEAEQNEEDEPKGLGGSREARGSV", "conditions": "activator, high potassium ND96K"}, "[2]": {"target": "T2, GIRK4 homomeric channel (GIRK4, G4) (Homo sapiens, UniProt P48544, S75A)", "T2 construct": "gene KCNJ5; full-length GIRK4 in pGEMSH vector, homotetramer, expressed in Xenopus laevis oocytes", "T2 sequence (P48544 1-419 S75A)": "T1 sequence (P48544 1-419 L90A) with S75A, A90L", "conditions": "activator, high potassium ND96K"}, "[3]": {"target": "T3, GIRK4 homomeric channel (GIRK4, G4) (Homo sapiens, UniProt P48544)", "T3 construct": "gene KCNJ5; full-length GIRK4 in pGEMSH vector, homotetramer, expressed in Xenopus laevis oocytes", "T3 sequence (P48544 1-419)": "T1 sequence (P48544 1-419 L90A) with A90L"}, "GIRK2∗ (GIRK2:E152D) [4]": {"target": "T4, GIRK2∗ (GIRK2:E152D) (Mus musculus, UniProt P48542, I82L/E152D)", "T4 construct": "gene Kcnj6; GIRK2 E152D in pXOOM vector, homotetramer, expressed in Xenopus laevis oocytes", "T4 sequence (P48542 1-425 I82L/E152D)": "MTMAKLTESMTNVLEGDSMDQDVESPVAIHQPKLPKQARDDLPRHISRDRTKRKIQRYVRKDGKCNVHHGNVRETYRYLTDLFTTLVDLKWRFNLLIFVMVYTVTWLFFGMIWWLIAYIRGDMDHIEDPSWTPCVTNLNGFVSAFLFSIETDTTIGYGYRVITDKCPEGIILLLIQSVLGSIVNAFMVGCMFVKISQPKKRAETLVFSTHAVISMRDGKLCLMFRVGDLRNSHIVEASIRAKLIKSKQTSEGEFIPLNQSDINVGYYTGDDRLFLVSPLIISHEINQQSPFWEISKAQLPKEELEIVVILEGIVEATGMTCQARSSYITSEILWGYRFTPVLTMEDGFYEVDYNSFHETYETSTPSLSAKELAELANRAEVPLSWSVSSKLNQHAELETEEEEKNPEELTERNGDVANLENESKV", "conditions": "activator, high potassium ND96K"}, "[5]": {"target": "T5, GIRK4 homomeric channel (GIRK4, G4) (Homo sapiens, UniProt P48544, S75T)", "T5 construct": "gene KCNJ5; full-length GIRK4 in pGEMSH vector, homotetramer, expressed in Xenopus laevis oocytes", "T5 sequence (P48544 1-419 S75T)": "T1 sequence (P48544 1-419 L90A) with S75T, A90L", "conditions": "activator, high potassium ND96K"}, "GIRK2∗ (GIRK2:E152D) [6]": {"target": "T6, GIRK2∗ (GIRK2:E152D) (Mus musculus, UniProt P48542, T80S/I82L/E152D)", "T6 construct": "gene Kcnj6; GIRK2 E152D in pXOOM vector, homotetramer, expressed in Xenopus laevis oocytes", "T6 sequence (P48542 1-425 T80S/I82L/E152D)": "T4 sequence (P48542 1-425 I82L/E152D) with T80S", "conditions": "activator, high potassium ND96K"}, "[7]": {"target": "T7, GIRK4 homomeric channel (GIRK4, G4) (Homo sapiens, UniProt P48544, G247R)", "T7 construct": "gene KCNJ5; full-length GIRK4 in pGEMSH vector, homotetramer, expressed in Xenopus laevis oocytes", "T7 sequence (P48544 1-419 G247R)": "T1 sequence (P48544 1-419 L90A) with A90L, G247R", "conditions": "activator, high potassium ND96K"}, "[8]": {"target": "T8, GIRK4 homomeric channel (GIRK4, G4) (Homo sapiens, UniProt P48544, L77I)", "T8 construct": "gene KCNJ5; full-length GIRK4 in pGEMSH vector, homotetramer, expressed in Xenopus laevis oocytes", "T8 sequence (P48544 1-419 L77I)": "T1 sequence (P48544 1-419 L90A) with L77I, A90L", "conditions": "activator, high potassium ND96K"}, "[9]": {"target": "T9, GIRK4 homomeric channel (GIRK4, G4) (Homo sapiens, UniProt P48544, I177V)", "T9 construct": "gene KCNJ5; full-length GIRK4 in pGEMSH vector, homotetramer, expressed in Xenopus laevis oocytes", "T9 sequence (P48544 1-419 I177V)": "T1 sequence (P48544 1-419 L90A) with A90L, I177V", "conditions": "activator, high potassium ND96K"}, "[10]": {"target": "T10, GIRK4 homomeric channel (GIRK4, G4) (Homo sapiens, UniProt P48544, F181A)", "T10 construct": "gene KCNJ5; full-length GIRK4 in pGEMSH vector, homotetramer, expressed in Xenopus laevis oocytes", "T10 sequence (P48544 1-419 F181A)": "T1 sequence (P48544 1-419 L90A) with A90L, F181A", "conditions": "activator, high potassium ND96K"}},
  "note": "Substitutions are numbered along the chain they refer to.",
  "data": [
    {"smiles": "COc1ccc(C(=O)CC2(O)C(=O)N(Cc3cccc4ccccc34)c3ccccc32)cc1OC", "note": "(stereo not shown) [3hi2one-G4, 3-[2-(3,4-dimethoxyphenyl)-2-oxoethyl]-3-hydroxy-1-(1-naphthylmethyl)-1,3-dihydro-2H-indol-2-one]", "values": [
      {"measurement": "I/Ibasal at 30 μM", "setting": "[1]", "result": "GIRK4:I177V, GIRK4:F181A, and GIRK4:I190A showed reduced 3hi2one-G4–induced currents"},
      {"measurement": "I/Ibasal at 30 μM", "setting": "[2]", "result": "Mutation of residue S75 to Ala did not yield a significant change in the ability"},
      {"measurement": "EC50", "setting": "[3]", "result": 12.7, "unit": "µM"},
      {"measurement": "current at 30 μM", "setting": "GIRK2∗ (GIRK2:E152D) [4]", "result": "GIRK2∗:I82L and GIRK2∗:T80S/I82L but not GIRK2:T80S could be activated by 3hi2one-G4"},
      {"measurement": "I/Ibasal at 30 μM", "setting": "[5]", "result": "whereas a Thr mutation significantly but partially affected the compound’s effectiveness"},
      {"measurement": "current at 30 μM", "setting": "GIRK2∗ (GIRK2:E152D) [6]", "result": "GIRK2∗:I82L and GIRK2∗:T80S/I82L but not GIRK2:T80S could be activated by 3hi2one-G4"},
      {"measurement": "current at 30 μM", "setting": "[7]", "result": "GIRK4:G247R, which is functional, was robustly activated by 3hi2one-G4"},
      {"measurement": "I/Ibasal at 30 μM", "setting": "[8]", "result": "GIRK4:I177V, GIRK4:F181A, and GIRK4:I190A showed reduced 3hi2one-G4–induced currents"},
      {"measurement": "I/Ibasal at 30 μM", "setting": "[9]", "result": "GIRK4:I177V, GIRK4:F181A, and GIRK4:I190A showed reduced 3hi2one-G4–induced currents"},
      {"measurement": "I/Ibasal at 30 μM", "setting": "[10]", "result": "GIRK4:I177V, GIRK4:F181A, and GIRK4:I190A showed reduced 3hi2one-G4–induced currents"}
    ]}
  ]
}
